Values of other authors as cited in patent publication US9682109B2, “Antiviral resistance mutants and applications thereof” (ABL SA, priority 2005, dated 2017).
Where a name gives a salt, the structure may show the parent alone.

Experiments:
[1] = test system: wild-type and lamivudine-resistant strains of HBV
[2] = test system: HBV replication
[3] = test system: HBV; details: 30 mg daily dose, over 12 weeks, phase II studies (Heathcote et al 1998)
[4] = test system: HIV
[5] = test system: HBV

Row | SMILES | clinical activity [1] | inhibitor of HBV replication [2] | mean decrease in viremia [3] | antiviral activity against HIV [4] | antiviral activity against HBV [5]
1 | CC(C)(C)C(=O)OCOP(=O)(COCCn1cnc2c(N)ncnc21)OCOC(=O)C(C)(C)C [ADV, adefovir dipivoxil] | demonstrated clinical activity | potent inhibitor | 4 log10 | – | –
2 | Nc1nc(=O)n([C@@H]2CS[C@H](CO)O2)cc1F [FTC, (−)-β-L-2′-3′-dideoxy-5-fluoro-3′-thiacydidine] | – | – | – | activity | activity
3 | CC(C)OC(=O)OCOP(=O)(CO[C@H](C)Cn1cnc2c(N)ncnc21)OCOC(=O)OC(C)C [TFV, tenofovir disoproxil fumarate] | – | – | – | antiviral activity | antiviral activity
